Holding throughout (test): Enzyme Inhibition Assay
The target in one test is Beta-secretase 1 (Homo sapiens, UniProt P56817). To be noted: pH 4.5; 22 °C.
The target in another test is T1, Beta-secretase 2 (Homo sapiens, UniProt Q9Y5Z0).
T1 sequence (Q9Y5Z0 whole entry): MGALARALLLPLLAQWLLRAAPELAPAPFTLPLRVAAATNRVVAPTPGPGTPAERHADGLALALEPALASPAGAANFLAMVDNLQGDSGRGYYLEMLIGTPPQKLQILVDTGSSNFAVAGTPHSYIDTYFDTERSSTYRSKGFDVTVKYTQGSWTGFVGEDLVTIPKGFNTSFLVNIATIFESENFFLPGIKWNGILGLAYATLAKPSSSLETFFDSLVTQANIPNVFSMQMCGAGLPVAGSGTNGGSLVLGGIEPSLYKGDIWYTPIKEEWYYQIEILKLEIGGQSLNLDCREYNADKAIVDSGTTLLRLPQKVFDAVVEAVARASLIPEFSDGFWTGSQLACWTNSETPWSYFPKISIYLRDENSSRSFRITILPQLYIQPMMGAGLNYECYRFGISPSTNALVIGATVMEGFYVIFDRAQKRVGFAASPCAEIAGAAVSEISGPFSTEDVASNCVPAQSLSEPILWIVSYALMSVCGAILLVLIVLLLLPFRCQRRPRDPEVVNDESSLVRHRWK

A further test concerns the target Cathepsin D (Homo sapiens, UniProt P07339).

Each structure is given as a SMILES string.

Chain of Cathepsin D (P07339 65-162 limits assumed): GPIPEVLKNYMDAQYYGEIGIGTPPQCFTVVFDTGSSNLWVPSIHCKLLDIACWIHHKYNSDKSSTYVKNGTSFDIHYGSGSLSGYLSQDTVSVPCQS
Chain of Cathepsin D (P07339 169-412 limits assumed): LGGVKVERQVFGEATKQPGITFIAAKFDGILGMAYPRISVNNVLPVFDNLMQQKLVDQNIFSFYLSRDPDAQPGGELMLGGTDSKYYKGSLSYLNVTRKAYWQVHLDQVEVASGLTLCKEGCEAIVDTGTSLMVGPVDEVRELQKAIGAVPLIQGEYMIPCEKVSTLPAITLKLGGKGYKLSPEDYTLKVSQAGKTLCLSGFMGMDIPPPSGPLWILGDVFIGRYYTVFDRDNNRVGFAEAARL
Chain of Beta-secretase 1 (P56817 whole entry): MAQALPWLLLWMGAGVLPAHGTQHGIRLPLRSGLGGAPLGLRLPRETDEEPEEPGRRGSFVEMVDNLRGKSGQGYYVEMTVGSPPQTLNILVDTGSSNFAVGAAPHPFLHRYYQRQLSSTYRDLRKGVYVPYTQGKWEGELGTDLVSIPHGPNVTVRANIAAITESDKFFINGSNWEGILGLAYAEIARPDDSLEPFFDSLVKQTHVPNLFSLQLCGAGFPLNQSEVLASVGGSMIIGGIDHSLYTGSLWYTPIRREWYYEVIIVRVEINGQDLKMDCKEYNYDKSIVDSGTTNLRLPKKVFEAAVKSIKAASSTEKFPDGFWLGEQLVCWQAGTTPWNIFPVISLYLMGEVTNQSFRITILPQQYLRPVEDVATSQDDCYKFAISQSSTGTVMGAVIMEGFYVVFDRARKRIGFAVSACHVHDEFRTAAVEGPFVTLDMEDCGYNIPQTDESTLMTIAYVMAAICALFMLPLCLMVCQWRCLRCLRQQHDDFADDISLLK

On to `CCc1cn2c3c(cc(C(=O)N[C@@H](Cc4ccccc4)[C@H](O)CNC4CCOCC4)cc13)N(C)S(=O)(=O)CC2` [BMCL193674 Compound 6], for which the concentration for half-maximal inhibition (IC50) (usually the midpoint of a concentration-inhibition curve) at Beta-secretase 1 came to 15 nM; on Beta-secretase 2 it was 490 nM; on Cathepsin D, 6610 nM.

On to `CCc1cn2c3c(cc(C(=O)N[C@@H](Cc4ccccc4)[C@H](O)CNC4CCOCC4)cc13)OS(=O)(=O)CC2` [sulfone tricyclic analogue, 19], for which the IC50 turned out to be 86 nM on Beta-secretase 1; 450 nM at Beta-secretase 2; 130 nM on Cathepsin D (pH 4.5, 22 °C).

For the origin of these results see BindingDB's records for doi:10.1016/j.bmcl.2009.03.149 (Gsk, 2009).
